From ChEMBL document CHEMBL5715954, “Silencing c-Myc translation as a therapeutic strategy through targeting PI3Kδ and CK1ε in hematological malignancies” (Blood, 2017)

Legend:
Parameters in all cases: scale not given: the % may be the effect or the level left
[1] = target: T1, Aurora kinase C (Homo sapiens) (UniProt Q9UQB9); assay: Inhibition of human Aurora C assessed as enzyme activity at 1 uM using H-LRRASLG as substrate preincubated for 20 mins followed by [gamma-33P]-ATP addition and measured after 120 mins by radiometric Hot-SpotSM Kinase assay relative to control
T1 sequence (whole entry): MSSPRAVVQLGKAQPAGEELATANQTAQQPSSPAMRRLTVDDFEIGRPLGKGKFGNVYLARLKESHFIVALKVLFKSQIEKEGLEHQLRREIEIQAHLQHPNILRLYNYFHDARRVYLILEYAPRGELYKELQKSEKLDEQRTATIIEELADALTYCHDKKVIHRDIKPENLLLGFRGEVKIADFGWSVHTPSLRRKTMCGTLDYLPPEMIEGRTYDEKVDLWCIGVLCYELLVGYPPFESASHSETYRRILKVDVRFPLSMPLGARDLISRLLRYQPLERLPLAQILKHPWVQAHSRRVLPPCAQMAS

[2] = target: Casein kinase I isoform gamma-2 (Homo sapiens) (UniProt P78368); assay: Inhibition of human CK1g2 assessed as enzyme activity at 1 uM using KRRRAL[pS]VASLPGL as substrate preincubated for 20 mins followed by [gamma-33P]-ATP addition and measured after 120 mins by radiometric Hot-SpotSM Kinase assay relative to control
Sequence of Casein kinase I isoform gamma-2 (Homo sapiens) (P78368 whole entry, looked up, canonical isoform): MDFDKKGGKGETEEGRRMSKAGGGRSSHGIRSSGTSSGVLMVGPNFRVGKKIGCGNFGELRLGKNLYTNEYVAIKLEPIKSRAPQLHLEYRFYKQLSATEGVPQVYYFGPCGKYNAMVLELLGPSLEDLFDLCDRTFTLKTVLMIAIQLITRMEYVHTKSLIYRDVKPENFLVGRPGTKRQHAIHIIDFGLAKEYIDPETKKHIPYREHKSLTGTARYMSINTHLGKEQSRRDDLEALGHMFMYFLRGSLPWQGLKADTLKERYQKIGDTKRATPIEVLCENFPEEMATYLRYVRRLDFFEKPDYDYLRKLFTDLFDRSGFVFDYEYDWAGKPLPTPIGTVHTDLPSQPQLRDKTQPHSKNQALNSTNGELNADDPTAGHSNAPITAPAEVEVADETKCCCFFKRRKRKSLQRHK

[3] = target: T2, Myotonin-protein kinase (Homo sapiens) (UniProt Q09013); assay: Inhibition of human DMPK assessed as enzyme activity at 1 uM using KKRNRRLSVA as substrate preincubated for 20 mins followed by [gamma-33P]-ATP addition and measured after 120 mins by radiometric Hot-SpotSM Kinase assay relative to control
T2 sequence (whole entry): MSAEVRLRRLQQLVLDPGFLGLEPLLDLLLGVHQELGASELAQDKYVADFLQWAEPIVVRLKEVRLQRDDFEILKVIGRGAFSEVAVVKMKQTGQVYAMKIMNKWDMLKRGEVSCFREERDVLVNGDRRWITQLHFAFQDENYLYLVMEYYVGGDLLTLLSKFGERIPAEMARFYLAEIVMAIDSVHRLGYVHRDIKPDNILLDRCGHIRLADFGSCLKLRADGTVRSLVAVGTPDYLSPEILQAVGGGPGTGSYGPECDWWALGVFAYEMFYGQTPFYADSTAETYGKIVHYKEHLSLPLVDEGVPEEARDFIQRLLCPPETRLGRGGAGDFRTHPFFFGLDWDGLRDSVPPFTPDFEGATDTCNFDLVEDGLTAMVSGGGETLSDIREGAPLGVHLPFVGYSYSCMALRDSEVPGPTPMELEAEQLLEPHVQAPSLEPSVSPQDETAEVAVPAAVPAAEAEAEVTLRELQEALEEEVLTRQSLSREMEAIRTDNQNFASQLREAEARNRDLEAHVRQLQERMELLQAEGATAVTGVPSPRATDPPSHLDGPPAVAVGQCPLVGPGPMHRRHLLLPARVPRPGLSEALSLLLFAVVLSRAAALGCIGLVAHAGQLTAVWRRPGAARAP

[4] = target: T3, Ephrin type-B receptor 4 (Homo sapiens) (UniProt P54760); assay: Inhibition of human EPHB4 assessed as enzyme activity at 1 uM using poly[Glu:Tyr] (4:1) as substrate preincubated for 20 mins followed by [gamma-33P]-ATP addition and measured after 120 mins by radiometric Hot-SpotSM Kinase assay relative to control
T3 sequence (whole entry): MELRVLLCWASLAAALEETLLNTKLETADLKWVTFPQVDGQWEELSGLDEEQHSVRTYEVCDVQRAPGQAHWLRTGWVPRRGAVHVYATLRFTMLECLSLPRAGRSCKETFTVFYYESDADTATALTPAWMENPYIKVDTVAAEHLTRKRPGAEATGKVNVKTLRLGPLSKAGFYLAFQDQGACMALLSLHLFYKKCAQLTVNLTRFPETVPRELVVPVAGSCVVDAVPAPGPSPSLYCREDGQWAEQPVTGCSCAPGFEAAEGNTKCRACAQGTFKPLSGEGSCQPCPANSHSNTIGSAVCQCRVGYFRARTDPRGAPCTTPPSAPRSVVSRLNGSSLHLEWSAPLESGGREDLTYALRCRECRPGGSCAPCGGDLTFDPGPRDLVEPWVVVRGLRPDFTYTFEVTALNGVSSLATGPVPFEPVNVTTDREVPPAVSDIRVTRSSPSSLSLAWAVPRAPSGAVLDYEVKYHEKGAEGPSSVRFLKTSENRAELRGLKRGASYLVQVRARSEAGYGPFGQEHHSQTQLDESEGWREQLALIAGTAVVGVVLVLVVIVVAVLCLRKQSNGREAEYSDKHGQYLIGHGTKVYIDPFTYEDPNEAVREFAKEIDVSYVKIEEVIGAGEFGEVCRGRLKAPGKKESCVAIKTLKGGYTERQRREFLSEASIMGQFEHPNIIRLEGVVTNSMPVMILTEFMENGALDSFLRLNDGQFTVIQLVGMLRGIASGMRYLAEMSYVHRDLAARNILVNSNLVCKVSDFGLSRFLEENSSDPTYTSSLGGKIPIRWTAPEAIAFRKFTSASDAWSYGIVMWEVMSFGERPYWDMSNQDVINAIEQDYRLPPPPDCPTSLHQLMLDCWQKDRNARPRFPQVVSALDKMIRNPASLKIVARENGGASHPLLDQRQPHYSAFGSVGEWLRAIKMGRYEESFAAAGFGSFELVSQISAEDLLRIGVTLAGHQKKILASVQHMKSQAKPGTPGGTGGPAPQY

[5] = target: SRSF protein kinase 3 (Homo sapiens) (UniProt Q9UPE1); assay: Inhibition of human MSSK1 assessed as enzyme activity at 1 uM using GRSRSRSRSR as substrate preincubated for 20 mins followed by [gamma-33P]-ATP addition and measured after 120 mins by radiometric Hot-SpotSM Kinase assay relative to control
Sequence of SRSF protein kinase 3 (Homo sapiens) (Q9UPE1 whole entry): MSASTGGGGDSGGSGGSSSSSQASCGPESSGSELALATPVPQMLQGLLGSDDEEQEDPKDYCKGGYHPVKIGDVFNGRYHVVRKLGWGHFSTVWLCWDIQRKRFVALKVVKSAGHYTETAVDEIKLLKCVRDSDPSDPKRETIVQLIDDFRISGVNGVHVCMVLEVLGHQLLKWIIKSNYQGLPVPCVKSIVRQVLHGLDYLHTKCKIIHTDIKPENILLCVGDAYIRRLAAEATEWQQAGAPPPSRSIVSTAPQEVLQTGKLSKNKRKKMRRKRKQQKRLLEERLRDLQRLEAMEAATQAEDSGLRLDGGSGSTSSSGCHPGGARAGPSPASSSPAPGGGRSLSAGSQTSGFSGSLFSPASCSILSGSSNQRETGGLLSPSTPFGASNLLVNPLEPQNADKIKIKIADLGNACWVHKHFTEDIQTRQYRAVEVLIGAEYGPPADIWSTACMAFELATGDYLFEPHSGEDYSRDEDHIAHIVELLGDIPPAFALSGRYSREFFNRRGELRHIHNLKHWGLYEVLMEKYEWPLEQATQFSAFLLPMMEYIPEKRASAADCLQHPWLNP

[6] = target: Serine/threonine-protein kinase Nek6 (Homo sapiens) (UniProt Q9HC98); assay: Inhibition of human NEK6 assessed as enzyme activity at 1 uM using casein as substrate preincubated for 20 mins followed by [gamma-33P]-ATP addition and measured after 120 mins by radiometric Hot-SpotSM Kinase assay relative to control
Sequence of Serine/threonine-protein kinase Nek6 (Homo sapiens) (Q9HC98 whole entry): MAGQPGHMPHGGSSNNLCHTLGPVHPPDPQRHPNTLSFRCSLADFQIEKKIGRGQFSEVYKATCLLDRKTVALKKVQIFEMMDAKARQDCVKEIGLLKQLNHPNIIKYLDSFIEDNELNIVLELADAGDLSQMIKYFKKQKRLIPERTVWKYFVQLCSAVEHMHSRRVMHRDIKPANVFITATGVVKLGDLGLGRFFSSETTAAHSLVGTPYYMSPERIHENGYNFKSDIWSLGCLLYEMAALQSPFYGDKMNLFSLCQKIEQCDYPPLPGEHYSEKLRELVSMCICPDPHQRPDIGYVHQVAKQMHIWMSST

[7] = target: SRSF protein kinase 1 (Homo sapiens) (UniProt Q96SB4); assay: Inhibition of human SRPK1 assessed as enzyme activity at 1 uM using GRSRSRSRSR as substrate preincubated for 20 mins followed by [gamma-33P]-ATP addition and measured after 120 mins by radiometric Hot-SpotSM Kinase assay relative to control
Sequence of SRSF protein kinase 1 (Homo sapiens) (Q96SB4 whole entry): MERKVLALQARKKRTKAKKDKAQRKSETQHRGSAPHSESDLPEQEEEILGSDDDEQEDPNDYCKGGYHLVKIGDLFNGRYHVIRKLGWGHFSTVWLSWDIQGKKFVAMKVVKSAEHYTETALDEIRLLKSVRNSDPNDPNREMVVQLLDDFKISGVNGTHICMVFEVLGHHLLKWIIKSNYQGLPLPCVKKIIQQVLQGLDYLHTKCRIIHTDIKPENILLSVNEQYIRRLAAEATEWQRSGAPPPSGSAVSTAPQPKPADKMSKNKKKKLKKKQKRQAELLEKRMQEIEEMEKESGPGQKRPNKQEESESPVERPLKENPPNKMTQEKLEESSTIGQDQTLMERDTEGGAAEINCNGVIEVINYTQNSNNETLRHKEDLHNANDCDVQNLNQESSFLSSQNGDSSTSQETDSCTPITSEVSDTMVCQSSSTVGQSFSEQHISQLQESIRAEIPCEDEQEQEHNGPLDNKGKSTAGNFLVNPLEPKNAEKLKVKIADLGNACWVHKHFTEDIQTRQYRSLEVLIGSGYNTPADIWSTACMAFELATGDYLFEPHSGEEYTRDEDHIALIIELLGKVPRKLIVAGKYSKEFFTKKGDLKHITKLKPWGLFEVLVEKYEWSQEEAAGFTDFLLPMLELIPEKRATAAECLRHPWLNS

[8] = target: Serine/threonine-protein kinase 38-like (Homo sapiens) (UniProt Q9Y2H1); assay: Inhibition of human STK38L assessed as enzyme activity at 1 uM using KKRNRRLSVA as substrate preincubated for 20 mins followed by [gamma-33P]-ATP addition and measured after 120 mins by radiometric Hot-SpotSM Kinase assay relative to control
Sequence of Serine/threonine-protein kinase 38-like (Homo sapiens) (Q9Y2H1 2-464 limits assumed): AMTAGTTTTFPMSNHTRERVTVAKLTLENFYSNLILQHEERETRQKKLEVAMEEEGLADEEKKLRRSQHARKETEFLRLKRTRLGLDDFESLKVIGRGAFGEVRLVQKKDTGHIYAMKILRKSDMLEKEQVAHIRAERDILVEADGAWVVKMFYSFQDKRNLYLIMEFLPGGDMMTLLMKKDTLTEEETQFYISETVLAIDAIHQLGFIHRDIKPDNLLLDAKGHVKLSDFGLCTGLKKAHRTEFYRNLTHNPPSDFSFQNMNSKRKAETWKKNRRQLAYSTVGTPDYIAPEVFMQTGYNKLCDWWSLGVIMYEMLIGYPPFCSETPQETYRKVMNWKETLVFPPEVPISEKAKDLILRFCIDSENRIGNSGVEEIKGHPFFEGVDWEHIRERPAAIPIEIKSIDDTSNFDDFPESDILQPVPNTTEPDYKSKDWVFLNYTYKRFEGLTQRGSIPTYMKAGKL

Row | Structure (SMILES) | Activity [1] | Activity [2] | Activity [3] | Activity [4] | Activity [5] | Activity [6] | Activity [7] | Activity [8]
1 | CC[C@H](Nc1ncnc2[nH]cnc12)c1nc2cccc(F)c2c(=O)n1-c1ccccc1 | 90.8% | 99.7% | 104% | 92.2% | 101% | 93.2% | 92.7% | 95.1%
2 | C[C@H](Nc1ncnc2nc[nH]c12)c1cc2cccc(Cl)c2c(=O)n1-c1ccccc1 | 89.4% | 98.5% | 106% | 91.5% | 102% | 92.6% | 94% | 92.7%
3 | CC(C)Oc1ccc(-c2nn([C@@H](C)c3oc4ccc(F)cc4c(=O)c3-c3cccc(F)c3)c3ncnc(N)c23)cc1F [UMBRALISIB] | 94.2% | 104% | 100% | 89.7% | 107% | 97.7% | 90.6% | 100%
